# In PMC8524809 (Molecular Therapy, 2021):
# How the values were obtained:
# [1] = tested on: SARS-CoV-2 S pseudovirion beta variant; format: cell-based; conditions: similar to the WT
# [2] = tested on: SARS-CoV-2 S pseudovirion alpha variant; format: cell-based; conditions: similar to the WT
smiles,measurement,setting,value
CC(C)(O)c1ccccc1CC[C@@H](SCC1(CC(=O)O)CC1)c1cccc(/C=C/c2ccc3ccc(Cl)cc3n2)c1 [montelukast],Inhibition of pseudovirus entry,[1],increase in a dose-dependent manner
same,Inhibition of pseudovirus entry,[2],increase in a dose-dependent manner
